Two molecules from the supplement of paper PMC12076712 can be followed below.

What is called pIC50 is the negative decadic logarithm of the IC50, by convention in mol/L. Low readings indicate a large IC50, high ones a small IC50.

For one assay, the target named is SPR (UniProt P35270). Description: pIC50, competition of probe 3 labelling in live cells. The following applies: cell material: Jurkat cells.
Another assay concerns the target CDK10 (UniProt Q15131). Nature of the assay: pIC50, kinobeads binding competition. To be noted: cell material: Jurkat lysate.
The target of the next assay is T1, KSR1 (UniProt Q8IVT5).
T1 sequence (whole entry): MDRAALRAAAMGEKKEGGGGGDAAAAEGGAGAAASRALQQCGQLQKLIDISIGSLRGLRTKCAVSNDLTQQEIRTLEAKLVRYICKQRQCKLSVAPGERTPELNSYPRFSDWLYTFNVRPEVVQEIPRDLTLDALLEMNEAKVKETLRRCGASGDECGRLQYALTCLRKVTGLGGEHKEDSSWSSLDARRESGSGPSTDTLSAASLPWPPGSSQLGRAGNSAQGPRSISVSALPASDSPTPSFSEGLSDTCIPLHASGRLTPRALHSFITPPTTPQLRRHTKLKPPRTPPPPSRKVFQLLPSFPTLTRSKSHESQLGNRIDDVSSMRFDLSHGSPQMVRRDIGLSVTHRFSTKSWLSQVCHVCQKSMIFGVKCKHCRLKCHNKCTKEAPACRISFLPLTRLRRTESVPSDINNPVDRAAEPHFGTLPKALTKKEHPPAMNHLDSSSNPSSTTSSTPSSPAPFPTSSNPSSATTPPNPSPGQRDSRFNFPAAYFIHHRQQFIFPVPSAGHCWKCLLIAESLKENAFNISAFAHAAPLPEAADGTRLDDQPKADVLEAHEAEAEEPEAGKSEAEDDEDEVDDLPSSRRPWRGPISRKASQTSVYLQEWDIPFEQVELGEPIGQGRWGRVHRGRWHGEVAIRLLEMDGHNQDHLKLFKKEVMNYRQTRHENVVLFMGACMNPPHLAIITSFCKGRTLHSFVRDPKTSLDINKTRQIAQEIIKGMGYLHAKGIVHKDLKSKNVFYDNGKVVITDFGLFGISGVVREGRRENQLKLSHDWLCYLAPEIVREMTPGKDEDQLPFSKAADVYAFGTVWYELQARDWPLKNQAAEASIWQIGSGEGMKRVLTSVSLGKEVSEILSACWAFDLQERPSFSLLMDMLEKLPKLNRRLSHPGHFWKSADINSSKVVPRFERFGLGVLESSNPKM
Nature of the assay: pIC50, kinobeads binding competition. The following applies: cell material: Jurkat lysate.

The next assay has as its target MAPKAPK3 (UniProt Q16644). Description: pIC50, kinobeads binding competition. To be noted: cell material: Jurkat lysate.
For a further assay, the target named is MAST3 (UniProt O60307). Description: pIC50, kinobeads binding competition. To be noted: cell material: Jurkat lysate.
Sequence of MAST3 (O60307 whole entry): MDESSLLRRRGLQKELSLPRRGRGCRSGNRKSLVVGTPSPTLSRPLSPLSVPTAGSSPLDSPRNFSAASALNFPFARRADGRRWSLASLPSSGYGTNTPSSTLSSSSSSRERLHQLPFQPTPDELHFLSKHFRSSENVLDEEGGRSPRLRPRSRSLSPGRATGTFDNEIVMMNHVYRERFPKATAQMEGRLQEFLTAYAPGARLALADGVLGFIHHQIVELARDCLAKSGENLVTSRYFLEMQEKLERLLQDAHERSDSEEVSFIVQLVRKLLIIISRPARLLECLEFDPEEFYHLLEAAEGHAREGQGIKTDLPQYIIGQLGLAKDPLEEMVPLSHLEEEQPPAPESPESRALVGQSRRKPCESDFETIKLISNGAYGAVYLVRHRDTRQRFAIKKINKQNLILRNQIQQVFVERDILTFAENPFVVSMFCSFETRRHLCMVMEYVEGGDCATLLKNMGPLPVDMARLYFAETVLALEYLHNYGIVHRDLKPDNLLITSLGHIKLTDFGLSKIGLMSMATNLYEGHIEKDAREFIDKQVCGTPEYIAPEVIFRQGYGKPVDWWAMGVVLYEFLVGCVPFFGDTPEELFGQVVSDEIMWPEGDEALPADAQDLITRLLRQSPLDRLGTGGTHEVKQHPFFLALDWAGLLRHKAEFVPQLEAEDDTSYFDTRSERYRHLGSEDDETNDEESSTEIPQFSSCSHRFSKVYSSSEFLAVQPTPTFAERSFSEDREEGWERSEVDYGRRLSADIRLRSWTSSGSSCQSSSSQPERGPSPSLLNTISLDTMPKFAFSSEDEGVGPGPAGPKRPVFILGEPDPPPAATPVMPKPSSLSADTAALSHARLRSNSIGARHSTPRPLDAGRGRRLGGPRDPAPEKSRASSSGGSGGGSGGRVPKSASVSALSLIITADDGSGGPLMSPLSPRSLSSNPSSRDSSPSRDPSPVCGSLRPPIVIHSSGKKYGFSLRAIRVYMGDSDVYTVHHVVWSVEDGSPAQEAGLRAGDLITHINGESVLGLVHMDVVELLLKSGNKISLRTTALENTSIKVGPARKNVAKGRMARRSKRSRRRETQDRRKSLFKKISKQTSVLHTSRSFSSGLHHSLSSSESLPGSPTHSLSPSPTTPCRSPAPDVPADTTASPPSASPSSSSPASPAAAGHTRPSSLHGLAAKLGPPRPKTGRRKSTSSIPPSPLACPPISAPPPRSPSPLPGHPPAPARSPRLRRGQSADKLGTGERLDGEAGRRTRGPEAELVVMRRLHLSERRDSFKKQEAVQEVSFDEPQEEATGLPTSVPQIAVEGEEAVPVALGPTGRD
The next assay addresses MAST4 (UniProt O15021). Description: pIC50, kinobeads binding competition. The following applies: cell material: Jurkat lysate.
Another assay has as its target T2, MASTL (UniProt Q96GX5).
T2 sequence (whole entry): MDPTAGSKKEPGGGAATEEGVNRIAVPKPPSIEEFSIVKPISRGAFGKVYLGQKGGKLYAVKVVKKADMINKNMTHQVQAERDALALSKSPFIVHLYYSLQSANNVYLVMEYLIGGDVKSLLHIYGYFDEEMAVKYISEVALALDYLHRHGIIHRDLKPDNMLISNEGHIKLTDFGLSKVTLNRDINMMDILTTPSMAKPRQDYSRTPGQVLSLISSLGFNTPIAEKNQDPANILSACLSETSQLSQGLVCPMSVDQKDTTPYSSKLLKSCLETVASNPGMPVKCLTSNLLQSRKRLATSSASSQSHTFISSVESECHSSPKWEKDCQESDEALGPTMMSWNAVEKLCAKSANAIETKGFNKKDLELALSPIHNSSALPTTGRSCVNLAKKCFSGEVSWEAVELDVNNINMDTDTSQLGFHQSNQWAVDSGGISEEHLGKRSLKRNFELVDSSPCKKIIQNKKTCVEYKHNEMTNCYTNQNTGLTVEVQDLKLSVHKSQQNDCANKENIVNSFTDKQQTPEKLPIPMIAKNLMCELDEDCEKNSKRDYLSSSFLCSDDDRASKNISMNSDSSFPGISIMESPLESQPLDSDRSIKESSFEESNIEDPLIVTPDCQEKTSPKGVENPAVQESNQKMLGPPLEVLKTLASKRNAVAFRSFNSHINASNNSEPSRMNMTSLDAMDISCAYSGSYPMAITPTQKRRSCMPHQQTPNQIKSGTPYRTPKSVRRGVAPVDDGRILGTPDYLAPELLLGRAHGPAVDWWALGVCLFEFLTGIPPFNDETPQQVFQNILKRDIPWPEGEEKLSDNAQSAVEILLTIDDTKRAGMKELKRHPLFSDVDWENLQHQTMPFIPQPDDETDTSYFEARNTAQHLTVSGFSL
Nature of the assay: pIC50, kinobeads binding competition. The following applies: cell material: Jurkat lysate.

A further assay addresses T3, PBK (UniProt Q96KB5).
T3 sequence (whole entry): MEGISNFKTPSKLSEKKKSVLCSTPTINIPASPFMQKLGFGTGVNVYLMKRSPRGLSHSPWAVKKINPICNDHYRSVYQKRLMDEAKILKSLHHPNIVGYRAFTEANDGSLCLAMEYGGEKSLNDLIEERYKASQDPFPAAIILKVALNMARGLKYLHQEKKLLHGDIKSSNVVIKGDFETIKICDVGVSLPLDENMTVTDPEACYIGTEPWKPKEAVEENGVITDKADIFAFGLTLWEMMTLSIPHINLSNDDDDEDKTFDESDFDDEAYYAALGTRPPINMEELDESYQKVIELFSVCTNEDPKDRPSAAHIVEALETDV
Description: pIC50, kinobeads binding competition. To be noted: cell material: Jurkat lysate.

The target in the next assay is PDIK1L (UniProt Q8N165). Description: pIC50, kinobeads binding competition. To be noted: cell material: Jurkat lysate.
Sequence of PDIK1L (Q8N165 whole entry): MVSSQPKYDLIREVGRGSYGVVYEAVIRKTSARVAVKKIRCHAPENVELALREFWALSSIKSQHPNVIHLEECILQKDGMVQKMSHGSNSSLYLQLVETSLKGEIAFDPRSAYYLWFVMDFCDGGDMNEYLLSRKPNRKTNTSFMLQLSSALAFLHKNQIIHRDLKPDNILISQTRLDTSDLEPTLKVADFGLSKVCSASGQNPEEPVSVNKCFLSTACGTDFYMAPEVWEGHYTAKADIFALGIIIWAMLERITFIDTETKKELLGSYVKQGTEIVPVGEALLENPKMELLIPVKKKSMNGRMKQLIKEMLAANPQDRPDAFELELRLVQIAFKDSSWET
For the next assay, the target named is PIK3R4 (UniProt Q99570). Nature of the assay: pIC50, kinobeads binding competition. To be noted: cell material: Jurkat lysate.
Sequence of PIK3R4 (Q99570 whole entry): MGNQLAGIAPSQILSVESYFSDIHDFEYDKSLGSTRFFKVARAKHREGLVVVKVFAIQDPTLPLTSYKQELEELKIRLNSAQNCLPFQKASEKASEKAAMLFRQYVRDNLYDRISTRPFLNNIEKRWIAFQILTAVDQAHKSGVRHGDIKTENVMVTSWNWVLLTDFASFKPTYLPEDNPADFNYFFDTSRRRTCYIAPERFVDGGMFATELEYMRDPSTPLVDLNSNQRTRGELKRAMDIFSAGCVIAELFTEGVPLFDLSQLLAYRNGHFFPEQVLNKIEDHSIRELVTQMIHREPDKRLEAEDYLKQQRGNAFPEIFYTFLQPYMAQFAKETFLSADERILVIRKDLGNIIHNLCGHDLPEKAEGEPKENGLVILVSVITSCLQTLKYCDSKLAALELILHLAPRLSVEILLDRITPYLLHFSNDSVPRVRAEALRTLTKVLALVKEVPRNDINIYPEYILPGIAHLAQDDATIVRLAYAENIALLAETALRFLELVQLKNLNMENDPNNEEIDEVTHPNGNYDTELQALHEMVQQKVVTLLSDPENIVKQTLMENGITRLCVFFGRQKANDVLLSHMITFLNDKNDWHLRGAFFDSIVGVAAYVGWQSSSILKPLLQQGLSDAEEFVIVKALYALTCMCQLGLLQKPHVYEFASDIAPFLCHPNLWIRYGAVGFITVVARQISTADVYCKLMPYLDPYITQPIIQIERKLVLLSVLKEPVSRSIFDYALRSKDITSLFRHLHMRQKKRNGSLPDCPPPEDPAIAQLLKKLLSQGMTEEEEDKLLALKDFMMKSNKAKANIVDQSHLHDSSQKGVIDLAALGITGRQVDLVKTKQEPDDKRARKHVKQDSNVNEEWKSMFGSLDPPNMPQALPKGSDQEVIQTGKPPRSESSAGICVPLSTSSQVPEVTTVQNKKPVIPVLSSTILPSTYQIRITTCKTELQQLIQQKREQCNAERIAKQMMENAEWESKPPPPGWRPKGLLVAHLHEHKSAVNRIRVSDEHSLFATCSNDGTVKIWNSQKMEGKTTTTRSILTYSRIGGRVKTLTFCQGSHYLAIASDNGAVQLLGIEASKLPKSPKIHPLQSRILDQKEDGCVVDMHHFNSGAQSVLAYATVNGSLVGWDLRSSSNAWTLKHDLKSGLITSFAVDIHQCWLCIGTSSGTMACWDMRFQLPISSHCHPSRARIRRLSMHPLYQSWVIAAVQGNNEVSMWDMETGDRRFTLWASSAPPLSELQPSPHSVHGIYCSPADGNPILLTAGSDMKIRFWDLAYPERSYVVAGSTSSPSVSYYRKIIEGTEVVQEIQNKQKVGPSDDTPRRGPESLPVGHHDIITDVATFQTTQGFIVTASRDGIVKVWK
A further assay has as its target T4, PIP4K2A (UniProt P48426).
T4 sequence (whole entry): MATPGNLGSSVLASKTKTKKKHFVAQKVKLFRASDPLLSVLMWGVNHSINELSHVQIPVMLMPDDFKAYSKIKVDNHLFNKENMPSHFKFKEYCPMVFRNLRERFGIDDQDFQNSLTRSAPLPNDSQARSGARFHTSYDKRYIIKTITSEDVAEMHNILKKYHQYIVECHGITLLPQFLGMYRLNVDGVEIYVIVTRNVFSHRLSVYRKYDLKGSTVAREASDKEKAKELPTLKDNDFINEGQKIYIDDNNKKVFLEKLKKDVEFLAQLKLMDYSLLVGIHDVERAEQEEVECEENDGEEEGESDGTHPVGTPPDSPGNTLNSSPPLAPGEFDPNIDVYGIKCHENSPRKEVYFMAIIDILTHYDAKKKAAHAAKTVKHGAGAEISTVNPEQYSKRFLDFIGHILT
Description: pIC50, kinobeads binding competition. To be noted: cell material: Jurkat lysate.

The next assay has as its target TRRAP (UniProt Q9Y4A5). Nature of the assay: pIC50, kinobeads binding competition. To be noted: cell material: Jurkat lysate.
The target in the next assay is UniProt Q5TCX8. Nature of the assay: pIC50, kinobeads binding competition. The following applies: cell material: Jurkat lysate.
Sequence of UniProt Q5TCX8 (Q5TCX8 whole entry): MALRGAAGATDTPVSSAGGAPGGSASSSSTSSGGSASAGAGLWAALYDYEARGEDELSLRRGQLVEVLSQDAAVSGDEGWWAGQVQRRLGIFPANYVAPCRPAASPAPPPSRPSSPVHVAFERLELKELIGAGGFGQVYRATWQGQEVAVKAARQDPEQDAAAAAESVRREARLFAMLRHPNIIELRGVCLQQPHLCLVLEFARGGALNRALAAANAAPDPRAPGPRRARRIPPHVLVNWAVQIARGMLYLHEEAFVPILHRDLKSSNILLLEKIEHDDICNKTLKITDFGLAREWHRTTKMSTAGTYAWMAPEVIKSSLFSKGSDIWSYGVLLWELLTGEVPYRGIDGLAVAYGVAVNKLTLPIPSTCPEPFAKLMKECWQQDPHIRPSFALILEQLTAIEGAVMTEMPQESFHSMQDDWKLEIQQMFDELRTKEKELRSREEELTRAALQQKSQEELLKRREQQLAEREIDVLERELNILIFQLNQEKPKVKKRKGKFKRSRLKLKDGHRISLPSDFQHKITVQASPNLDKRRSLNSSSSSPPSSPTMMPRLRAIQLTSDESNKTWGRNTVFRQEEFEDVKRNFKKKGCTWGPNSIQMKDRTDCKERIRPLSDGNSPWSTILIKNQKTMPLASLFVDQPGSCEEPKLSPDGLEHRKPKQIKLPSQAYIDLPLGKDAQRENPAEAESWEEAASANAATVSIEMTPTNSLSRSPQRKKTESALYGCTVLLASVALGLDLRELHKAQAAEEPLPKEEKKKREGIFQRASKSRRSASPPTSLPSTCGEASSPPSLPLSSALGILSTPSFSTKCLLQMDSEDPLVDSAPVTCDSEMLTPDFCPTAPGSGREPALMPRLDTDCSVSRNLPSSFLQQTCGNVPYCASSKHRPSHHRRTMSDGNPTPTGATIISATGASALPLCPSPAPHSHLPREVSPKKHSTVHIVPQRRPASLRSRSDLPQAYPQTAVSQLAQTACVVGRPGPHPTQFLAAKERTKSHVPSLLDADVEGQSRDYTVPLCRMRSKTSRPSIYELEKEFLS

The structures appear in SMILES notation. ± gives the standard deviation of the averaged measurements.

Sequence of MAPKAPK3 (Q16644 whole entry, looked up): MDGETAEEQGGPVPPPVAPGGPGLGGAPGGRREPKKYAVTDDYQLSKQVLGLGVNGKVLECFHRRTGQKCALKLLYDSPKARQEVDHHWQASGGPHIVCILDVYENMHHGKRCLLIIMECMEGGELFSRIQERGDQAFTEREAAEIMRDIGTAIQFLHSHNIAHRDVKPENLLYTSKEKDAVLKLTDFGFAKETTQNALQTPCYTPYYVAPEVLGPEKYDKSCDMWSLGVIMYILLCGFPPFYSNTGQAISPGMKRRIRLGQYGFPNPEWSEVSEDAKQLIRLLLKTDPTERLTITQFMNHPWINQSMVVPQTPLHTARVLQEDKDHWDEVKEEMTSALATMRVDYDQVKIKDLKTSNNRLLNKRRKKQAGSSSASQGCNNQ
Sequence of CDK10 (Q15131 whole entry): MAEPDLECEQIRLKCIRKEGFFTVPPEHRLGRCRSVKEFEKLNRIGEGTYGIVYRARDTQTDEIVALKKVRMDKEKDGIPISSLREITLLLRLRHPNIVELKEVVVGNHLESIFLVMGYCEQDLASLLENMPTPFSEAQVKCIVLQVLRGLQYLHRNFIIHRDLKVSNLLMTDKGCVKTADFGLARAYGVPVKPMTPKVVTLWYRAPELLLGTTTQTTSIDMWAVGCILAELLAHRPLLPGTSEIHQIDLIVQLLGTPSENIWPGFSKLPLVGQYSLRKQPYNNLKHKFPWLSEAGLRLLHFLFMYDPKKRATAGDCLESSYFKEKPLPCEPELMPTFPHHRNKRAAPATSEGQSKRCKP
Sequence of SPR (P35270 whole entry, looked up): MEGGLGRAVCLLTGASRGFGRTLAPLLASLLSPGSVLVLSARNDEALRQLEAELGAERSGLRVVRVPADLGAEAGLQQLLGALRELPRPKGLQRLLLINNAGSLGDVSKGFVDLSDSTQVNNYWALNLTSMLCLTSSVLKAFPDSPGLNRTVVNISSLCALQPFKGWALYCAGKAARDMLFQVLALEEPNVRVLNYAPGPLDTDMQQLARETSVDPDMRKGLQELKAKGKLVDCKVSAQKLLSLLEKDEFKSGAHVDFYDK

Molecule `Cc1c(C(=O)N2CCN(CC(F)(F)F)CC2)cnn1-c1nn2cccc2c(=O)[nH]1` [QM385] had a negative-log IC50 (pIC50) at SPR of 7.61 ± 0.34.
With `Cc1nc(Nc2ncc(C(=O)Nc3c(C)cccc3Cl)s2)cc(N2CCN(CCO)CC2)n1` [dasatinib], the pIC50 was less than 4.52 at CDK10; 4.72 at KSR1; 6.74 at MAPKAPK3; less than 4.52 at MAST3; less than 4.52 on MAST4; less than 4.52 on MASTL. Further, the pIC50 at PBK was less than 4.52; at PDIK1L, 4.89 ± 0.099; on PIK3R4, less than 4.52; on PIP4K2A it was less than 4.52; at TRRAP it was less than 4.52; at UniProt Q5TCX8 it was less than 4.52.
